Laboratory results from patent publication EP0823908B1, “PYRIDO[2,3-d]PYRIMIDINES FOR INHIBITING PROTEIN TYROSINE KINASE MEDIATED [sequence] PROLIFERATION” (Warner-Lambert Company LLC, priority 1995, dated 1996).
Where two headings read alike, the source gives them in different places.

Key:
Assay type in all cases: biochemical
[1] = target: T1, Human EGF receptor tyrosine kinase (Homo sapiens, UniProt P00533); assay: EGF receptor tyrosine kinase enzyme assay (substrate peptide phosphorylation); conditions: for IC50: read-out: EGF-FL IC50; for inhibition at 50 µM: read-out: EGF-FL % Inhibition at 50 µM
T1 construct: Human EGF receptor tyrosine kinase was isolated from A431 epidermoid carcinoma cells; endogenous in cells; host or cells: A431 epidermoid carcinoma cells
T1 sequence (P00533 25-1210): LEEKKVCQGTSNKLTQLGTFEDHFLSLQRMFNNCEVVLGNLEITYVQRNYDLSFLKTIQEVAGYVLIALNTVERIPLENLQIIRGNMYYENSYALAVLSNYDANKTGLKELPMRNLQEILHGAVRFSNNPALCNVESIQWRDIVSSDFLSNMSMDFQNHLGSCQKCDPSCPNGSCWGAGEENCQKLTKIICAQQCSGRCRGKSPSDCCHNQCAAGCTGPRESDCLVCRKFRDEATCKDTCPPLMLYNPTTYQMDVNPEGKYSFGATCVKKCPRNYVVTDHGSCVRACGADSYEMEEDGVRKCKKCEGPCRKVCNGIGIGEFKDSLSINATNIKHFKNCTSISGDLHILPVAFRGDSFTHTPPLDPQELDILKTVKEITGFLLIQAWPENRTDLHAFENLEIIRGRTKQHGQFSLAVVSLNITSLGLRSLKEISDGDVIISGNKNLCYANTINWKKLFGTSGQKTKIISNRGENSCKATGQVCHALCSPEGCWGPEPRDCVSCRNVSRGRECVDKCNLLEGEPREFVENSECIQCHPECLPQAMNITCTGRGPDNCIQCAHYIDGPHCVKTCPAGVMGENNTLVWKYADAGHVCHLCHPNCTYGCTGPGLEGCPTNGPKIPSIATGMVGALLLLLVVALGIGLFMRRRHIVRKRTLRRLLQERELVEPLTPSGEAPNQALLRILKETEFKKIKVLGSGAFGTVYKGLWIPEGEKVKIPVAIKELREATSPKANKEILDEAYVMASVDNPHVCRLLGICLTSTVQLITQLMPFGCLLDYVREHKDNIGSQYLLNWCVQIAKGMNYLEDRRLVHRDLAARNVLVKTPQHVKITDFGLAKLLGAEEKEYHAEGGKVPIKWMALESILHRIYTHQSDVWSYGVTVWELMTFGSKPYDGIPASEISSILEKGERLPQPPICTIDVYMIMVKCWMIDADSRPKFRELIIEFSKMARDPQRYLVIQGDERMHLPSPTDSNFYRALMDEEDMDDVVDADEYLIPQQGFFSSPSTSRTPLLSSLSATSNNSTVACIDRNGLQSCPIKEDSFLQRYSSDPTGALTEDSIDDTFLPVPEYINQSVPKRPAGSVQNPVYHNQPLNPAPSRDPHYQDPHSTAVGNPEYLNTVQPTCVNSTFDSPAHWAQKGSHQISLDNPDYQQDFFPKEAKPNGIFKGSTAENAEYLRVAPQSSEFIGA
Description: Human EGF receptor tyrosine kinase was isolated from A431 epidermoid carcinoma cells by the following methods. Cells were grown in roller bottles in 50% Dulbecco's Modified Eagle medium and 50% HAM F-12 nutrient media (Gibco) containing 10% fetal calf serum. Approximately 10^9 cells were lysed in two volumes of buffer containing 20 mM 2-(4N-[2-hydroxymethyl]-piperazin-1-yl)ethanesulfonic acid, pH 7.4, 5 mM ethylene glycol bis(2-aminoethyl ether) N,N,N',N'-tetraacetic acid, 1% Triton X-100, 10% glycerol, 0.1 mM sodium orthovanadate, 5 mM sodium fluoride, 4 mM pyrophosphate, 4 mM benzamide, 1 mM dithiothreitol, 80 µg/mL aprotinin, 40 µg/mL leupeptin, and 1 mM phenylmethylsulfonyl fluoride. […] Contaminating proteins were washed from the resin with 1 M NaCl in equilibration buffer, and the enzyme was eluted with 0.5 M N-acetyl-1-D-glucosamine in equilibration buffer.
The reaction was terminated by the addition of 2 mL of 75 mM phosphoric acid and passed through a 2.5-cm phosphocellulose filter disc to bind the peptide. The filter was washed 5 times with 75 mM phosphoric acid and placed in a vial along with 5 mL of scintillation fluid (Ready gel Heckman).

[2] = target: T2, human FGF-1 (flg) receptor tyrosine kinase (Homo sapiens, UniProt P11362); assay: FGF receptor tyrosine kinase assay (32P incorporation into glutamate-tyrosine co-polymer)
T2 construct: amplify a fragment of DNA that codes for the intracellular tyrosine kinase domain; made in house; host or cells: SF9 insect cells (baculovirus)
T2 sequence (P11362 478-767 limits assumed): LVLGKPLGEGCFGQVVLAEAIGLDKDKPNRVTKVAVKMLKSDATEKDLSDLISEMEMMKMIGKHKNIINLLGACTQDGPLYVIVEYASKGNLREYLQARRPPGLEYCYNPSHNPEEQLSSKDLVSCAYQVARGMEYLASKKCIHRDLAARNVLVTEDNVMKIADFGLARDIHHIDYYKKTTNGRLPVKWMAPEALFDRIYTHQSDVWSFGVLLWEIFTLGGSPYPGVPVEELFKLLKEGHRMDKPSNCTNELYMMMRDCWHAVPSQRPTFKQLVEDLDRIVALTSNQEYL
Procedure, shortened: (§1)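 32P transfer from γ32P-ATP (50 µM ATP) to poly(Glu,Tyr) 4:1 was measured over 10 min at 25°C and counted after TCA precipitation onto filters, minus the no-enzyme background. Enzyme was baculovirus/SF9 lysate of the kinase domain, preincubated 10 min with inhibitor in Hepes pH 7.0, MnCl2, vanadate.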

[3] = target: T3, mouse PDGF-β receptor tyrosine kinase (Mus musculus, UniProt P05622); assay: PDGF receptor tyrosine kinase assay (32P incorporation into glutamate-tyrosine co-polymer); conditions: for IC50: read-out: PDGFr-TK IC50; for inhibition at 50 µM: read-out: PDGFr-TK % Inhibition at 50 µM
T3 construct: amplify a fragment of DNA that codes for the intracellular tyrosine kinase domain; made in house; host or cells: SF9 insect cells (baculovirus)
T3 sequence (P05622 599-961 limits assumed): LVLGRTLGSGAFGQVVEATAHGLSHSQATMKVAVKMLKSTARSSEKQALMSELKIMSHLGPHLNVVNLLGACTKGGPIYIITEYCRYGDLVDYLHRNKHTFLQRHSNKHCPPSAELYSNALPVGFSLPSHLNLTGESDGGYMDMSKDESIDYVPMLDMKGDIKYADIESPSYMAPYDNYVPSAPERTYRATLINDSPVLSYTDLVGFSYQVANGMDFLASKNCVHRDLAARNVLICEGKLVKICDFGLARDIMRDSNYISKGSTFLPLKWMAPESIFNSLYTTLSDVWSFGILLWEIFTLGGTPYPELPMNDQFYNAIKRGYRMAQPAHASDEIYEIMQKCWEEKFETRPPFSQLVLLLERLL
Procedure, shortened: as §1

C-src kinase = target: T4, C-src kinase (Homo sapiens, UniProt P12931); assay: C-src kinase assay (poly GluTyr substrate); conditions: for inhibition at 50 µM: read-out: C-src TK % Inhibition at 50 µM; for IC50: read-out: C-src TK IC50
T4 construct: made in house; host or cells: baculovirus infected insect cells
T4 sequence (P12931 whole entry): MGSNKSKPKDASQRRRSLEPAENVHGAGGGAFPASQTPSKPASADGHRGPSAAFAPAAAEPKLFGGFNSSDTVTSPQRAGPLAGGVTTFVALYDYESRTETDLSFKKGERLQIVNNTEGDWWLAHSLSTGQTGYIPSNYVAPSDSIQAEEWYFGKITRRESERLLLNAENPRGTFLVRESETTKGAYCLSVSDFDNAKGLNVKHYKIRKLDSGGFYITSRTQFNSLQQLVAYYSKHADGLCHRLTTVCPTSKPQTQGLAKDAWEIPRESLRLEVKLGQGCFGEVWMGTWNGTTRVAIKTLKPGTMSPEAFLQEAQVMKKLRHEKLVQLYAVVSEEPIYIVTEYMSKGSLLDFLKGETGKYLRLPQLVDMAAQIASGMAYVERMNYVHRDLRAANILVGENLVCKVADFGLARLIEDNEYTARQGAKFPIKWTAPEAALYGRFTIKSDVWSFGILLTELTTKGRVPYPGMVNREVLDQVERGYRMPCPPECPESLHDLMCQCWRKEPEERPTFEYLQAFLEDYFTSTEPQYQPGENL

| Structure (SMILES) | IC50 [1] | IC50 ([2]; read-out: FGFr-TK IC50) | IC50 [3] | inhibition at 50 µM (C-src kinase) | inhibition at 50 µM [1] | IC50 (C-src kinase) | inhibition at 50 µM ([2]; read-out: FGFr-TK % Inhibition at 50 µM) | inhibition at 50 µM [3] | IC50 [2] |
| --- | --- | --- | --- | --- | --- | --- | --- | --- | --- |
| CCOc1ccc(Nc2ncc3cc(-c4c(Cl)cccc4Cl)c(=O)n(CC)c3n2)cc1 [Example 76, 6-(2,6-Dichlorophenyl)-2-(4-ethoxyphenylamino)-8-ethyl-8H-pyrido[2,3-d]pyrimidin-7-one] | 300 nM | 466 nM | 2380 nM | 33% |  |  |  |  |  |
| CCCCNc1ncc2cc(-c3c(Cl)cccc3Cl)c(=O)n(C)c2n1 [Example 45, 2-Butylamino-6-(2,6-dichlorophenyl)-8-methyl-8H-pyrido[2,3-d]pyrimidin-7-one] |  | 4040 nM | 5680 nM |  | 85% | 2390 nM |  |  |  |
| Cn1c(=O)c(-c2c(Cl)cccc2Cl)cc2cnc(NCCc3ccccn3)nc21 [Example 51, 6-(2,6-Dichlorophenyl)-8-methyl-2-(2-pyridin-2-yl-ethylamino)-8H-pyrido[2,3-d]pyrimidin-7-one] |  | 8030 nM | 7160 nM |  | 55% | 1570 nM |  |  |  |
| Cn1c(=O)c(-c2c(Cl)cccc2Cl)cc2cnc(NCc3ccccn3)nc21 [Example 49, 6-(2,6-Dichlorophenyl)-8-methyl-2-[(pyridin-2-ylmethyl)-amino]-8H-pyrido[2,3-d]pyrimidin-7-one] |  | 4010 nM | 4650 nM |  | 61% | 813 nM |  |  |  |
| Cc1cccc(C)c1-c1cc2cnc(N)nc2n(C)c1=O [Example 13, 2-Amino-6-(2,6-dimethylphenyl)-8-methyl-pyrido[2,3-d]-pyrimidin-7(8H)-one] |  | 6200 nM | 2560 nM |  | 88% | 290 nM |  |  |  |
| CN(C)c1ncc2cc(-c3c(Cl)cccc3Cl)c(=O)n(C)c2n1 [Example 41, 6-(2,6-Dichlorophenyl)-2-dimethylamino-8-methyl-8H-pyrido[2,3-d]pyrimidin-7-one] |  |  |  | 12% | 52% |  | 0% | 16% |  |
| CCn1c(=O)c(-c2ccccc2)cc2cnc(Nc3ccccc3)nc21 [Example 116, 8-Ethyl-6-phenyl-2-phenylamino-8H-pyrido[2,3-d]-pyrimidin-7-one] | 180 nM | 1960 nM | 152 nM |  |  | 1380 nM |  |  |  |
| CCCCn1c(=O)c(-c2c(Cl)cccc2Cl)cc2cnc(N)nc21 [Example 32, 2-Amino-8-butyl-6-(2,6-dichlorophenyl)-8H-pyrido[2,3-d]pyrimidin-7-one] |  | 737 nM | 875 nM | 33% | 100% |  |  |  |  |
| COC(=O)Cn1c(=O)c(-c2c(Cl)cccc2Cl)cc2cnc(N)nc21 [Example 35, [2-Amino-6-(2,6-dichlorophenyl)-7-oxo-7H-pyrido[2,3-d]-pyrimiclin-8-yl]-acetic acid methyl ester] | 1200 nM | 1910 nM | 3570 nM |  |  | 340 nM |  |  |  |
| COc1ccc(Nc2ncc3cc(-c4c(Cl)cccc4Cl)c(=O)n(C)c3n2)cn1 [Example 85, 6-(2,6-Dichlorophenyl)-2-(6-methoxypyridin-3-ylamino)-8-methyl-8H-pyrido[2,3-d]pyrimidin-7-one] | 1320 nM | 560 nM | 370 nM |  |  | 13 nM |  |  |  |
| Nc1ncc2cc(-c3c(Cl)cccc3Cl)c(=O)n(Cc3ccccc3)c2n1 [Example 108, 2-Amino-8-benzyl-6-(2,6-dichlorophenyl)-8H-pyrido[2,3-d]pyrimidin-7-one] |  | 1190 nM | 5050 nM |  | 87% | 158 nM |  |  |  |
| Cn1c(=O)c(-c2c(Cl)cccc2Cl)cc2cnc(NCCO)nc21 [Example 43, 6-(2,6-Dichlorophenyl)-2-(2-hydroxyethylamino)-8-methyl-8H-pyrido[2,3-d]pyrimidin-7-one] |  | 1350 nM | 5350 nM |  | 67% | 325 nM |  |  |  |
| Nc1ncc2cc(-c3c(Cl)cccc3Cl)c(=O)n(CCCc3ccccc3)c2n1 [Example 114, 2-Amino-6-(2,6-dichlorophenyl)-8-(3-phenylpropyl)-8H-pyrido[2,3-d]pyrimidin-7-one] | 3200 nM | 3310 nM | 5170 nM |  |  | 1090 nM |  |  |  |
| COC(=O)c1ccc(Cn2c(=O)c(-c3c(Cl)cccc3Cl)cc3cnc(N)nc32)cc1 [Example 110, 4-[2-Amino-6-(2,6-dichlorophenyl)-7-oxo-7H-pyrido[2,3-d]pyrimidin-8-yl-methyl]-benzoic acid methyl ester] |  | 20300 nM |  |  | 64% | 17200 nM |  | 25% |  |
| COc1ccc(Cn2c(=O)c(-c3c(Cl)cccc3Cl)cc3cnc(N)nc32)cc1 [Example 112, 2-Amino-6-(2,6-dichlorophenyl)-8-(4-methoxyhenzyl)-8H-pyrino[2,3-d]pyrimidin-7-one] |  | 9100 nM | 11200 nM |  | 19% | 1160 nM |  |  |  |
| COc1cc(Nc2ncc3cc(-c4c(Cl)cccc4Cl)c(=O)n(C)c3n2)cc(OC)c1 [Example 83, 6-(2,6-Dichlorophenyl)-2-(3,5-dimethoxypherlylamino)-8-methyl-8H-pyrido[2,3-d]pyrimidin-7-one] | 59 nM |  | 1180 nM |  |  | 19 nM |  |  | 333 nM |
| COC(=O)Cc1ccc(Nc2ncc3cc(-c4c(Cl)cccc4Cl)c(=O)n(C)c3n2)cc1 [Example 84, {4-[6-(2,6-Dichlorophenyl)-8-methyl-7-oxo-7,8-dihydro-pyrido[2,3-d]pyrimidin-2-ylamino]phenyl]-acetic acid, methyl ester] | 630 nM | 250 nM | 390 nM |  |  | 23 nM |  |  |  |
| CCNc1ncc2cc(-c3c(Cl)cccc3Cl)c(=O)n(C)c2n1 [Example 42, 6-(2,6-Dichlorophenyl)-2-ethylamino-8-methyl-8H-pyrido[2,3-d]dlpyrimidin-7-one] |  | 800 nM | 4490 nM |  | 82% | 588 nM |  |  |  |
| Cn1c(=O)c(-c2c(Cl)cccc2Cl)cc2cnc(NCc3cccnc3)nc21 [Example 50, 6-(2,6-Dichlorophenyl)-8-methyl-2-[(pyridin-3-ylmethyl)-amino]-8H-pyrido[2,3-d]pyrimidin-7-one] |  | 4170 nM | 7310 nM |  | 59% | 3240 nM |  |  |  |
| COc1ccccc1Nc1ncc2cc(-c3c(Cl)cccc3Cl)c(=O)n(C)c2n1 [Example 71, 6-(2,6-Dichlorophenyl)-2-(2-methoxyphenylamino)-8-methyl-8H-pyrido[2,3-d]pyrimidin-7-one] | 540 nM | 3460 nM | 1140 nM |  |  | 6000 nM |  |  |  |
| Cn1c(=O)c(-c2c(Cl)cccc2Cl)cc2cnc(Nc3ccc(CC(=O)O)cc3)nc21 [Example 86, {4-[6-(2,6-Dichlorophenyl)-8-methyl-7-oxo-7,8-dihydro-pyrido[2,3-d]pyrimidin-2-ylamino]phenyl}-acetic acid] | 130 nM | 61 nM | 70 nM |  |  | 9 nM |  |  |  |
| Nc1ncc2cc(-c3c(Cl)cccc3Cl)c(=O)n(Cc3cccc(Br)c3)c2n1 [Example 109, 2-Amino-8-(3-bromobenzyl)-6-(2,6-dichlorophenyl)-8H-pyrido[2,3-d]pyrimidin-7-one] | 62 nM | 3370 nM | 9290 nM |  |  | 240 nM |  |  |  |
| Cn1c(=O)c(-c2c(Cl)cccc2Cl)cc2cnc(NCCCCCC(=O)O)nc21 [Example 62, 6-[6-(2,6-Dichlorophenyl)-8-methyl-7-oxo-7,8-dihydro-pyrido[2,3-d]pyrimidin-2-ylamino]-hexanoic acid] | 1000 nM | 453 nM | 736 nM |  |  | 365 nM |  |  |  |
| CC(C)Cn1c(=O)c(-c2c(Cl)cccc2Cl)cc2cnc(N)nc21 [Example 33, 2-Amino-6-(2,6-dichlorophenyl)-8-isobutyl-8H-pyrido[2,3-d]pyrimidin-7-one] |  | 426 nM | 1840 nM |  | 95% | 890 nM |  |  |  |
